# Data published in US20250382346A1, “NEURONAL PROMOTERS AND USES THEREOF” (priority 2023, published 2025).
# Target: T1, hM3Dq (Homo sapiens, UniProt P20309, A239G/Y149C)
# T1 construct: expressed in transfected cells; host or cells: neurons of C57BL/6J mice or of macaques, transduced in vivo by nigral AAV8R12-G88P3-HA-hM3Dq
# Assay: Chemogenetic manipulation of BG direct pathway in mice with hM3Dq: rotations, nigral c-Fos
# Type: in vivo
# Conditions: for c-Fos+ cells in the SNr: AAV8R12-G88P3-HA-hM3Dq; for rotation behavior (FIG. 6C), mean±SEM: control vector AAV8R12-G88P3-EYFP, n=5, no effect
# Experimental: Mice were anesthetized with sodium pentobarbital (Nembutal; 80 mg/kg, i.p.), and then placed into a stereotaxic device (KOPF). Eye cream was applied on both corneas to avoid dehydration. The skull above the targeted areas was thinned with a dental drill and carefully removed. Injections were conducted with a 10 μL syringe connected to a 33-Gauge needle (Neuros; Hamilton), using a microsyringe pump (Legato 130, KD Scientific). A total volume of 200 nL virus was injected into the SNr at a speed of 20 nL/min. The coordinates for the SNr were 3.4 mm posterior, 1.3 mm lateral, 4.8 mm ventral to the bregma.
# Mice that were used in the behavioral experiments were then implanted with guide cannulas (KOPF) unilaterally aiming at the dorsomedial striatum (0.5 mm anterior, 1.5 mm lateral, 3.5 mm ventral to the bregma). The cannulas were fixed to the skull with dental cement. Stainless steel obturators were inserted into the guide cannulas and were replaced every other day to maintain the patency until infusions were made. Mice were allowed to recover from the surgery for at least 3 weeks before further studies.
# Labeling specificity of the retrograde AAV tracers was examined. […] To explore the functional features of retrograde AAV-labeled cells, AAV8R12-G88P3-HA-hM3Dq, which enables neuronal excitation upon clozapine N-oxide (CNO) administration, were injected into the right SNr of C57BL/6J mice. […] Based on the observed infection patterns of retrograde AAV, it was reasoned that the ipsiversive rotations were a consequence of the activation of the right SNr, which is a major inhibitory output center of the BG and was labeled by the locally injected AAV.
# Mice were individually handled for 10-20 seconds per day for at least 5 days to habituate them to the experimenter. The open field test was conducted in a test apparatus (50 cm×50 cm×50 cm) with an HD digital camera (Sony) positioned above the arena. On day one, mice were habituated to the apparatus for 10 minutes. On day 2, mice were administrated saline (0.1 mL i.p. or 200 nL intracranially [i.e.] through the guide cannulas). On day 3, mice were administrated with Clozapine-N-oxide (CNO, Hello Bio, HB1807; 0.3 mg/kg i.p. or 200 nL at 100 μM i.e.). All behavioral tests were conducted 30 minutes after injection. During the test, mice were allowed to freely explore the apparatus for 10 minutes. The behavioral data were analyzed with ANY-maze software (Stoelting Co.).
# T1 sequence (P20309 whole entry Y149C/A239G): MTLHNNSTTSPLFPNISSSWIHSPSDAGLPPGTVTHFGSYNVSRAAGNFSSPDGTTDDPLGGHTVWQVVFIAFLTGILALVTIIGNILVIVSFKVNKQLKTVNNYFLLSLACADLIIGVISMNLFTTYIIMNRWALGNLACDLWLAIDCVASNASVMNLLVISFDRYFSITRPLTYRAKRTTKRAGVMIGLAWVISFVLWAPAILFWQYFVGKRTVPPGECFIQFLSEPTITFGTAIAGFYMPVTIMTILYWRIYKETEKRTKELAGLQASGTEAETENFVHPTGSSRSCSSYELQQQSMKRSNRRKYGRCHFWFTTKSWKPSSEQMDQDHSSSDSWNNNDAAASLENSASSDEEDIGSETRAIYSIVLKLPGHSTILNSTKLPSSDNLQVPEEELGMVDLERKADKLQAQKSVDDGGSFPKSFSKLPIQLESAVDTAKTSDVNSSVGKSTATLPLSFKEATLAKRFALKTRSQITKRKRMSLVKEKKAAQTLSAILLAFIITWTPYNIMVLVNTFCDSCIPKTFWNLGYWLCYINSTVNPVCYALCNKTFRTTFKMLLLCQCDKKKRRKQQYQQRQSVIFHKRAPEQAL
smiles,measurement,setting,value
"C[N+]1([O-])CCN(C2=Nc3cc(Cl)ccc3Nc3ccccc32)CC1 [CNO, Clozapine-N-oxide]","rotations (FIG. 6A), mean±SEM; CNO induced ipsiversive rotations","AAV8R12-G88P3-HA-hM3Dq nigral, CNO i.p., saline 45.25±4.128, n=8",87.84±4.666
same,"rotations (FIG. 6A), mean±SEM; CNO induced contraversive rotations","AAV8R12-G88P3-HA-hM3Dq nigral, CNO intracranial into dorsomedial striatum, saline 49.63±5.879, n=8",15.08±3.435
same,c-Fos+ cells in the SNr,intracranial CNO infusion,No significant changes in the number of nigral c-Fos+ cells
same,c-Fos+ cells in the SNr,intraperitoneal CNO,significant increase in c-Fos+ cells in the right SNr
same,"rotation behavior (FIG. 6C), mean±SEM","CNO i.p., saline 47.08±10.5",44.72±10.89
same,"rotation behavior (FIG. 6C), mean±SEM","CNO intracranial, saline 54.22±8.766",61.39±5.774
